The assay relates to Lactobacillus delbrueckii subsp. bulgaricus. Put plainly: Ampicillin growth reduction (OD600) in MRS broth. In kind it is cell-based. To be noted: at least 20 hours at 37° C., stated as typical. As to the method:
In order to isolate ampicillin resistant mutants of the Lactobacillus delbrueckii subsp. bulgaricus strain CHCC13995, cells derived from the growth of a single colony were inoculated anaerobically into 10 ml MRS broth containing one of the following amounts of ampicillin, 0 ng/ml, 100 ng/ml, 200 ng/ml, 300 ng/ml, 400 ng/ml, 500 ng/ml, 600 ng/ml or 700 ng/ml, and grown for at least 20 hours at 37° C. After the 20 hours of growth OD600 is measured for all samples. Typically the concentration of ampicillin that reduces the OD600 measured anaerobic growth of Lactobacillus delbrueckii subsp. bulgaricus with at least 20% as compared to the growth in MRS medium without ampicillin (i.e. with 0 ng/ml ampicillin) is higher than 300 ng/ml. Cultures where the concentration of ampicillin was 500 ng/ml were diluted and plated on MRS agar plates with no ampicillin added and then incubated anaerobically for at least 20 hours at 37° C. Colonies were then picked and screened for anaerobic growth at 37° C. in microtiter plates in the presence of 500 ng/ml ampicillin. Typically, 25% of the resulting colonies were identified as fast growers in the presence of ampicillin. These were chosen for further study. The selected ampicillin resistant mutants were further purified and tested for their ability to grow in milk. […]

With `CC1(C)S[C@@H]2[C@H](NC(=O)[C@H](N)c3ccccc3)C(=O)N2[C@H]1C(=O)O` [ampicillin], the “concentration of ampicillin that reduces the OD600 measured anaerobic growth with at least 20% as compared to the growth in MRS medium without ampicillin” value is reported as “higher than 300 ng/ml”.

(Values after patent US10716313B2, “Ampicillin resistant texturizing lactic acid bacteria strains” (Chr. Hansen A/S, priority 2012, dated 2020).)
